Source: patent publication US12637487B2 (priority 2017, dated 2026)
“Also recorded” adds a separate entry of the source.

Tests used:
[1] = system: Human Immunodeficiency Virus (HIV); assay: MD36792 experiments against human immunodeficiency virus (MT-4 cell protection); format: cell-based; conditions: MT-4 cells, LAI virus
Description: • 1. […] Cell: MT4 cells. • 3. Virus: Human Immunodeficiency Virus (HIV). • 4. Experimental reagents: RPMI-1640 medium, CellTiter-Glo detection kit (Promega) and other experimental reagents.
Experimental principle: MT-4 cell protection experiments were used to detect compounds against viruses.
Experimental steps: A 3-fold diluted drug was added to a 96-well plate, which incubates the LAI virus and MT-4 cells and inoculates it into the well plate. After culture, when the virus infects the control wells, a significant CPE appears. Reagent CellTiter-Glo was added and mixed, then the chemiluminescence signal is to be detected.
The experiment set the cell control (uninfected cell control), virus control, and positive drug control (Zidovudine, AZT).

virus = assay: Antiviral effect of AA011 and VK021 alone; format: cell-based
ICR mice = assay: Acetic acid-induced twisting (writhing) model, analgesic effect; format: in vivo; conditions: for Twisting Number Mean: 1 hour before 0.8% acetic acid i.p., 10 mice; for analgesic effect: acetic acid-induced model, mice
Description: Experimental method: Animals were adaptively fed for 5 days, and the body weight of the mice was weighed. […] The mice assigned to MD36792 group and the positive control group were given the corresponding drugs. After 1 hour of administration, the mice in each group were intraperitoneally injected with 0.8% acetic acid (0.2 mL/head). The twisting number of the mice were observed and recorded within 15 minutes.

[2] = system: Hepatitis C virus (HCV type 2a, JFH1-Luc virus strain); assay: MD36792 experiment against hepatitis C virus (Rluc reporter, Huh7.5.1 cells); format: cell-based
Hepatitis B virus (HBV) = assay: MD36792 experiment against hepatitis B virus (HBeAg/HBsAg ELISA, HepAD38 cells); format: cell-based; conditions: 72 hours, from 333 μM
Ebola virus = format: cell-based
HBV patients = assay: Dicycloplatin alone in hepatitis B patients; format: in vivo, human; conditions: 12 hepatitis B patients, 1-3 months
[3] = system: patients with hepatitis C; assay: Dicycloplatin alone in hepatitis C patients; format: in vivo, human; conditions: 9 patients with hepatitis C, 1-3 months
HIV-infected individuals = system: HIV-infected individuals; set-up: species or system human; conditions: in vivo
[4] = system: Ebola virus infected people; format: in vivo, human; conditions: 20 Ebola-infected patients (Africa), dicycloplatin alone i.v., 1-3 weeks
cancer patients = assay: Effect of dicycloplatin on pain in cancer patients (Table 5); format: in vivo, human; conditions: for pain, 5th day / pain, 17th day / pain, 31st day, then stop taking: 150 mg i.v. drip once every two days; for pain, 60th-90th (without using DCP ): after stopping
Description: Among cancer patients, it is suitable especially to patients with advanced liver cancer, kidney cancer, bone metastases, brain metastases and bone cancer. […] Some patients stopped using dicycloplatin after a certain course of dicycloplatin treatment, and no pain occurred again.
Dose of the above cancer patients is taken once every two days, 150 mg/5% glucose aqueous solution is dripped intravenously.

tumor patients = assay: Effect of dicycloplatin on tumor-induced tissue edema and inflammation; format: in vivo, human
HCV virus = assay: In vitro efficacy of MD36792 and combination with AA011 and VK021 on HCV virus; format: cell-based
cells = assay: Toxicity to the cells in the HCV combination study; format: cell-based; conditions: toxic CC50 to the cells; start concentration 200 μg/ml MD36792, 4 X dilution
[5] = at 1000 μM
[6] = at 1000 μM and 250 μM concentration
[7] = Lung cancer to bone metastasis 5 cases
[8] = Lung cancer to brain metastasis 2 cases

In the case of Cc1cn([C@H]2C[C@H](N=[N+]=[N-])[C@@H](CO)O2)c(=O)[nH]c1=O [zidovudine, Zidovudine, reference compound], the “inhibitory effect on HIV infection” value [1] is reported as “significant inhibitory effect”.
In the case of C[C@@]1(O)[C@H](O)[C@@H](CO)O[C@H]1n1ccc(N)nc1=O [2'CMC, reference compound], the antiviral effect (virus; positive drug, better as the dose increases) is reported as “good antiviral effect”.
For COc1cc2c(cc1OC)[C@@H]1Cc3ccc(OC)c(OC)c3CN1CC2 [Rotundine, reference compound], the “Twisting Number Mean” value (ICR mice; 100 mg/kg, counted within 15 minutes) was 2.8, the “number of writhing compared with the model group” value (ICR mice; 100 mg/kg, P=0.000) was “statistically significantly suppressed” and the analgesic effect (ICR mice) was “significant analgesic effects”.
For O=C1O[C@H]([C@@H](O)CO)C(O)=C1O [VK021, vitamin C], the antiviral effect (virus; [6]) was “certain antiviral effect”.
In the case of Dicycloplatin [MD36792], the “inhibitory effect on HCV” value [2] is reported as “no inhibitory effect”, the EC50 ([2]; 72 hours, read-out: EC50 (50% inhibition) of HCV) is reported as 121 µM and the “inhibitory effect on the expression of HBeAg (e antigen) of HBV” value (Hepatitis B virus (HBV)) is reported as “no inhibitory effect”. The “inhibitory effect on the expression of HBsAg (surface antigen) of HBV” value (Hepatitis B virus (HBV)) was “no inhibitory effect”, the “inhibitory effect on HIV infection” value [1] was “no inhibitory effect” and the “inhibitory effect on Ebola virus infection” value (Ebola virus) was “no inhibitory effect”. For the same molecule, the virus index (HBV patients; dicycloplatin alone 150 mg once every two days (i.v. drip or oral)) was “None of the patients showed a downward trend”, the liver function (HBV patients; dicycloplatin alone) was “did not improve” and the virus index ([3]; dicycloplatin alone 150 mg once every two days) was “None of the patients showed a downward trend”. The liver function ([3]; dicycloplatin alone) was “did not improve”, the liver function (HIV-infected individuals) was “did not improve” and the viral index (HIV-infected individuals; po) was “none showed a downward trend”. The control or remission [4] was “without any control or remission”, the virus index [4] was “None of the patients showed a downward trend” and the “pain, 5th day” value (cancer patients; Bone cancer 3 cases) was “Pain gone”. For the same molecule, the “pain, 17th day” value (cancer patients; Bone cancer 3 cases) was “No pain”, the “pain, 31st day, then stop taking” value (cancer patients; Bone cancer 3 cases) was “No pain” and the “pain, 60th-90th (without using DCP )” value (cancer patients; Bone cancer 3 cases) was “No pain”. For the same molecule, the “pain, 5th day” value (cancer patients; Kidney cancer 1 case) was “Pain relieved”, the “pain, 17th day” value (cancer patients; Kidney cancer 1 case) was “Pain gone” and the “pain, 31st day, then stop taking” value (cancer patients; Kidney cancer 1 case) was “No pain”. For the same molecule, the “pain, 60th-90th (without using DCP )” value (cancer patients; Kidney cancer 1 case) was “No pain”, the “pain, 5th day” value (cancer patients; Liver cancer 5 cases) was “Pain gone” and the “pain, 17th day” value (cancer patients; Liver cancer 5 cases) was “No pain”. For the same molecule, the “pain, 31st day, then stop taking” value (cancer patients; Liver cancer 5 cases) was “No pain”, the “pain, 60th-90th (without using DCP )” value (cancer patients; Liver cancer 5 cases) was “No pain” and the “pain, 5th day” value (cancer patients; [7]) was “Pain gone”. For the same molecule, the “pain, 17th day” value (cancer patients; [7]) was “No pain”, the “pain, 31st day, then stop taking” value (cancer patients; [7]) was “No pain” and the “pain, 60th-90th (without using DCP )” value (cancer patients; [7]) was “No pain”. The “pain, 5th day” value (cancer patients; [8]) was “Pain gone”, the “pain, 17th day” value (cancer patients; [8]) was “No pain” and the “pain, 31st day, then stop taking” value (cancer patients; [8]) was “No pain”. For the same molecule, the “pain, 60th-90th (without using DCP )” value (cancer patients; [8]) was “No pain”, the “treatment of pain caused by cancer” value (cancer patients; cancer patients, dicycloplatin injection or oral as the only treatment) was “significant effect; also recorded: significant efficacy” and the hepatic tissue edema (tumor patients; liver cancer patients, infusion or oral administration for a period of time) was “significantly disappeared or reduced”. The “tissue edema in the brain caused by cancer metastasis” value (tumor patients; lung cancer patients with brain metastases, oral or injection, one to two weeks) was “basically eliminated”, the “SI (selection index of the antiviral effect)” value (HCV virus) was 4.44 and the EC50 (HCV virus; start concentration 200 μg/ml MD36792, 4 X dilution) was 15.62 mg/L. For the same molecule, the CC50 (cells) was 69.4 mg/L, the “dose relation of analgesic effects” value (ICR mice; 10, 20, 40 mg/kg) was “dose-independent” and the “Twisting Number Mean” value (ICR mice; High dose 40 mg/kg, within 15 minutes) was 8.7. For the same molecule, the “Twisting Number Mean” value (ICR mice; Low dose 10 mg/kg, within 15 minutes) was 15.2, the “Twisting Number Mean” value (ICR mice; Middle dose 20 mg/kg, within 15 minutes) was 14.8 and the analgesic effect (ICR mice) was “significant analgesic effects”. For the same molecule, the analgesic effect (ICR mice; listed as dicycloplatin) was “significant analgesic effect” and the “number of writhing compared with the model group” value (ICR mice; high-dose group (40 mg/kg), P=0.009) was “statistically significantly suppressed”.
For N[C@@H](CCC(=O)N[C@@H](CS)C(=O)NCC(=O)O)C(=O)O [AA011, glutathione], the antiviral effect (virus; [6]) was “certain antiviral effect” and the cytotoxicity [5] was “no obvious cytotoxicity”.
With NC(=O)c1ncn([C@@H]2O[C@H](CO)[C@@H](O)[C@H]2O)n1 [Ribavirin, reference compound] the “inhibitory effect on HCV” value [2] was “significant inhibitory effect”.
